Experimental data: patent US4877779A, “2-aminomethylalkynylalkyl-1,3-dithiane derivatives” (priority 1988, dated 1989)
Where a name gives a salt, the structure may show the parent alone. Read-outs that look alike come from different tables or passages of the source.

Legend:
[1] = target: T1, calcium channel (guinea-pig isolated ileal longitudinal smooth muscle) (Cavia porcellus, UniProt O35505); test: Calcium Channel Antagonist Activity in Guinea-Pig Isolated Ileal Smooth Muscle; type: cell-based
T1 construct: The longitudinal smooth muscle is carefully separated from the underlying circular muscle layer; from tissue; host or cells: guinea-pig ileal longitudinal smooth muscle
Source text: Calcium Channel Antagonist Activity in Guinea-Pig Isolated Ileal Smooth Muscle.
Male albino guinea-pigs are sacrificed by stunning and exsanguination. The abdominal cavity is opened and the small intestine is removed, with about 10 cm of the terminal ileum being discarded. The tissue is placed in a dish containing Tyrode's solution (composition, mM: […]; KCl 2.68; NaHCO3 11.90; NaH2 PO4 0.36; MgCl2 0.98; CaCl2 1.77; dextrose 5.55), and cut into three to four segments. A glass rod (6 mm diameter) is carefully inserted into the lumen of each segment, and excess connective tissue or fat is removed. The longitudinal smooth muscle is carefully separated from the underlying circular muscle layer by gently stroking a moist cotton swab on a tangent to shallow, longitudinal incisions made parallel to the mesenteric attachment. Using gentle traction, and taking care to keep the segment moist at all times, the preparation is stripped from the remaining length of the ileal segment (Paton & Zar, J. Physiol. 194, 13; 1968).
Each preparation is suspended in a 10 mL jacketed glass tissue bath containing Tyrode's solution maintained at 37° C. and gassed with 5% CO2 in O2. The preparation is attached by silk thread to a force-displacement transducer. […] The initial resting tension is adjusted to 0.5 g and the preparation equilibrated for 55 minutes prior to experimentation. At the end of this period, the bathing solution is replaced with Ca^2+ -free Tyrode's solution. This solution is prepared by omitting CaCl2. The preparation is washed four times in Ca^2+ -free Tyrode 's to remove any Ca^2+ remaining in the bath, and allowed to equilibrate for a further 20 minutes.
Concentration-response curves to CaCl2 are obtained using the following procedure. Preparations are exposed to a depolarizing concentration of KCl (80 mM) for 6 minutes. At the end of this period CaCl2 is added to the bath cumulatively in the concentration range 0.2-8.0 mM. Successive additions of each Ca^2+ concentration are carried out only when the previous response has reached a plateau. When the maximum response has been attained the bath is again washed (five times) with Ca^2+ -free buffer, and the preparation re-equilibrated for approximately 15 minutes. A second Ca^2+ concentration-response curve is then obtained in the same manner. This second curve serves as control for that tissue.
Further curves are obtained in the presence of increasing concentrations of the test drugs. Where appropriate, the test drug is added to the bath immediately following addition of KCl, and 6 minutes later the concentration-response curve to Ca^2+ is obtained. Each test preparation is exposed to three different concentrations of a test drug.
For each ileal preparation, the control EC50 for Ca^2+ (the concentration producing 50% of the maximum response) is determined from the control concentration-response curve. Calcium blocking activity is defined as a Kb value (the concentration producing a two-fold dextral shift in the control curve), calculated from EC50 ratios in the absence and presence of test drugs.

[2] = tested on: substance P-induced Cl- ion secretion by guinea-pig isolated ileal mucosa; type: cell-based; settings: antagonist 5 μM serosal and mucosal, 5 minutes prior to substance P (1 μM)
Source text: Inhibition of Ileal Secretion.
This technique involves the measurement of Cl- ion secretion by guinea-pig isolated ileal mucosa, and provides a method for assessing the effect of drugs on intestinal electrolyte and water secretion. […] Cl- ion secretion in vitro, which is Ca^2+ -dependent, is quantitated as changes in electrical current (Isc) under short-circuited conditions.
Male Hartley guinea-pigs weighing 200-400 g were maintained on a standard laboratory diet with free access to food and water prior to sacrifice by decapitation. An approximately 15 cm segment of proximal ileum was removed and stripped of its underlying longitudinal muscle by blunt dissection. Four adjacent tissues were each mounted as flat sheets between Ussing chambers (two lucite half-chambers, exposed area=0.64 cm^2) and bathed on both sides by a physiological salt solution circulated by gas lift, and maintained at a pH of 7.4.
Electrical measurements were monitored with an automatic voltage clamp (World Precision Instruments, model DVC-1000). Two calomel electrodes with 4% agar Krebs Bicarbonate Ringer bridges were used to measure the transepithelial potential difference (PD) across the isolated mucosa. […] The Isc was recorded on a Gould chart recorder. […]

[3] = tested on: Serotonin-Induced Diarrhea in Mice; test: Inhibition of Serotonin-Induced Diarrhea in Mice; type: in vivo, Male CF1 mice; settings: Mus musculus, ip, 0.5 h, read-out: ED50 (95% confidence limits)
Protocol: Inhibition of Serotonin-Induced Diarrhea in Mice.
. The mice were weighed and an average weight was used to calculate the amount of drug to be administered. Drugs were prepared in isotonic saline or an appropriate vehicle at varying concentrations and were administered intraperitoneally. Control animals were given vehicles without any test drug. Serotonin was given intraperitoneally (i.p.) in all cases 30 minutes after i.p. administration of test drug. Mice were placed in individual cages containing racks and paper liners with free access to water. Mice were observed after 30 minutes, 60 minutes and 180 minutes and graded for presence or absence of diarrhea. The grading system consisted of positive (+), negative (-) and (±) based on consistency and liquid staining. The ED50 (effective dose in 50% of population) was calculated for each test drug using the method of Litchfield-Wilcoxin. […]

[4] = i.p., serotonin i.p. 30 minutes after test drug, mice, Litchfield-Wilcoxin
[5] = Kb = concentration producing a two-fold dextral shift in the control CaCl2 concentration-response curve, KCl (80 mM) depolarized ileal smooth muscle, read-out: Calcium antagonist Kb

T1 sequence (O35505 whole entry): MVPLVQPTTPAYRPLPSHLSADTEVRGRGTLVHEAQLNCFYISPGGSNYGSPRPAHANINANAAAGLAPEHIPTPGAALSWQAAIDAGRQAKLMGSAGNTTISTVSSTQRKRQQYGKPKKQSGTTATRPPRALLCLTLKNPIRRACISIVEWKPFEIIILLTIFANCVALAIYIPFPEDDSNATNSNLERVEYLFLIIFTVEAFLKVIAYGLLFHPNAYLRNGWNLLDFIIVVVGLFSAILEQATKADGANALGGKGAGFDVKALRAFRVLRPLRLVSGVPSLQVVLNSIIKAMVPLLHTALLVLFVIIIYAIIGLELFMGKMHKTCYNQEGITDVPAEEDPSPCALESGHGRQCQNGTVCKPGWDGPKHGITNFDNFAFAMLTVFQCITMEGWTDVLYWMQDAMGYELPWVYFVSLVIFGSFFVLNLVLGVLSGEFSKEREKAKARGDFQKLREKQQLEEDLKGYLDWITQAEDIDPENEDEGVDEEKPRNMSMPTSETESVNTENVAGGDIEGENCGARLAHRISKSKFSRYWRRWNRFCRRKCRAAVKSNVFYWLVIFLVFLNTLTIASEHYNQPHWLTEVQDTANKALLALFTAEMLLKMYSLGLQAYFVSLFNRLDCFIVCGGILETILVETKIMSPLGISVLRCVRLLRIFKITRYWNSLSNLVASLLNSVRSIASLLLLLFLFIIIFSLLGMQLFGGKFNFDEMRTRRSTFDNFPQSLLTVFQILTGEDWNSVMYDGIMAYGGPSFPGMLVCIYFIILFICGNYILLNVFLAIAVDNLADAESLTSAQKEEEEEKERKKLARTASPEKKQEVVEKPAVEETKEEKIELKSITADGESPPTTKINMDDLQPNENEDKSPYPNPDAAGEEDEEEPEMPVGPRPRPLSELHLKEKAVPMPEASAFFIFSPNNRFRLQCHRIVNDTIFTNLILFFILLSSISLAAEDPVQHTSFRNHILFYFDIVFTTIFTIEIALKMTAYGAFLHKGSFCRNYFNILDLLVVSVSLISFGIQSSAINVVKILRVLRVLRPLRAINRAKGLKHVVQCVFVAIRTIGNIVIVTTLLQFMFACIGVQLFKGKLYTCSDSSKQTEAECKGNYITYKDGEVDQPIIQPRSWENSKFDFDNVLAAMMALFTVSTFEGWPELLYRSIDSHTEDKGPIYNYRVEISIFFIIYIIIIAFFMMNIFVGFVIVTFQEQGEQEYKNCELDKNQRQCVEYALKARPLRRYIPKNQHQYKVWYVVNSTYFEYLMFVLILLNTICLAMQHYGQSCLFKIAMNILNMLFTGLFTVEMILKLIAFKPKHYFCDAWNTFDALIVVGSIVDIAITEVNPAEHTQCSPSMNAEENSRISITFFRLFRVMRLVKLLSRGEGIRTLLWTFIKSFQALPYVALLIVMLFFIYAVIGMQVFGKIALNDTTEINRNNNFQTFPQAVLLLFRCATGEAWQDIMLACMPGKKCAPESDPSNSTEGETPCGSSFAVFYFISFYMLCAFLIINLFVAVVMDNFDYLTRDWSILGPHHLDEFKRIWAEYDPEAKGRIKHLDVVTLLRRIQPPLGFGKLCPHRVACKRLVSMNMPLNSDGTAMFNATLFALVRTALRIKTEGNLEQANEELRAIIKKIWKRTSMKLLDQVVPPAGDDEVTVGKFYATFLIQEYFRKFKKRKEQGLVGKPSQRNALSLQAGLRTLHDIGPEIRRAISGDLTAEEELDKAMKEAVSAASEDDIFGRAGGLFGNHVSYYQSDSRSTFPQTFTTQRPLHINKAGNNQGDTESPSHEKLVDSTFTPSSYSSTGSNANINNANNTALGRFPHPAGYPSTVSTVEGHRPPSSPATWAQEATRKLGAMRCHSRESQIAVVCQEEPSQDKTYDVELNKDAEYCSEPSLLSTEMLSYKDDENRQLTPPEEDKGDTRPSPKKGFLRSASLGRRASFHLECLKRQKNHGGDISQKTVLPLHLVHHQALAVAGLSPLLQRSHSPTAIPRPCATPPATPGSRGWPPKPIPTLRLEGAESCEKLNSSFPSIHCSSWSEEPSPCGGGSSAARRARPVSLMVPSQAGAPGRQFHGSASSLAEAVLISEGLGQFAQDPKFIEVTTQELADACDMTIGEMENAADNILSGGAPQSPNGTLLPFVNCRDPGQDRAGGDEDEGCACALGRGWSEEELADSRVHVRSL

Structure (SMILES)	Kb [1, 5]	other results
CCN(CC)CC#CCCC1(C2(O)c3ccccc3Oc3ccccc32)SCCCS1 [2-(5-Diethylaminopent-3-ynyl)-2-(9-hydroxy-9H-xanthen-9-yl)-1,3-dithiane]	–	Kb [1]: 0.156 ± 0.03 µM; percent inhibition of substance P-induced increase in Isc [2]: 55.2%; ED50 [3]: 20.7 mg/kg
COc1ccc(CCN(C)CCCC(C#N)(c2ccc(OC)c(OC)c2)C(C)C)cc1OC (stereo not shown) [verapamil]	–	ED50 [3, 4]: 13.3 mg/kg
CN(C)C(=O)C(CCN1CCC(O)(c2ccc(Cl)cc2)CC1)(c1ccccc1)c1ccccc1 [loperamide, reference compound]	–	percent inhibition of substance P-induced increase in Isc [2]: 36.1%; ED50 [3, 4]: 0.16 mg/kg
CCN(CC)CC#CCCCC1(C2(O)c3ccccc3Oc3ccccc32)SCCCS1 [2-(6-Diethylaminohex-4-ynyl)-2-(9-hydroxy-9H-xanthen-9-yl)-1,3-dithiane]	0.17 ± 0.02 µM	–
CCN(CC)CC#CCCC1(C2(O)c3ccccc3C=Cc3ccccc32)SCCCS1 [2-(5-Diethylaminopent-3-ynyl)-2-(5-hydroxy-5H-dibenzo[a,d]cyclohepten-5-yl)-1,3-dithiane Oxalate]	0.3 µM	–
CCN(CC)CC#CCCCC1(C2(O)c3ccccc3-c3ccccc32)SCCCS1 [2-(6-Diethylaminohex-4-ynyl)-2-(9-hydroxy-9H-fluoren-9-yl)-1,3-dithiane]	0.81 ± 0.22 µM	–
OCCN1CCN(CC#CCCC2SCCCS2)CC1 [2-[5-[4-(2-Hydroxyethyl)piperazinyl]pent-3-ynyl]-1,3-dithiane Dioxalate]	> 10 µM	–
CCN(CC)CC#CCCC1SCCCS1 [2-(5-Diethylaminopent-3-ynyl)-1,3-dithiane Oxalate]	> 10 µM	–
CN(CC#CCCC1(C2(O)c3ccccc3Sc3ccc(Cl)cc32)SCCCS1)CCCc1ccccc1 (stereo not shown) [2-[5-(3Phenylpropyl)methylaminopent-3-ynyl)-2-(2-chloro-9-hydroxy-9H-thioxanthen-9-yl)-1,3-dithiane Hemioxalate]	> 7 µM	–
CN(CC#CCCC1SCCCS1)CCCCc1ccccc1 [2-[5-(4-Phenylbutyl)methylaminopent-3-ynyl]-1,3-dithiane Oxalate]	3.43 ± 0.83 µM	–
CN(CC#CCCC1SCCCS1)Cc1cccc2ccccc12 [2-[5-(1-Naphthylmethyl)methylaminopent-3-ynyl]-1,3-dithiane Oxalate]	> 10 µM	–
CN(CC#CCCC(O)(c1ccccc1)C1SCCCS1)CCc1ccccc1 (stereo not shown) [2-[6-(2-phenylethyl)methylamino-1-hydroxy-1-phenyl-hex-4-ynyl]-1,3-dithiane oxalate hemihydrate]	2.25 ± 0.53 µM	–
CN(CC#CCCC1(C(O)(c2ccccc2)c2ccccc2)SCCCS1)CCCc1ccccc1 [2-[5-(3-Phenylpropyl)methylaminopent-3-ynyl]-2-(9-hydroxy-9-phenylbenzyl)-1,3-dithiane Oxalate]	1.63 ± 0.88 µM	–
CCN(CC)CC#CCCC1(C(O)(c2ccccc2)C2CCCCC2)SCCCS1 (stereo not drawn) [2-(5-Diethylaminopent-3-ynyl)-2-(α-cyclohexyl-α-hydroxybenzyl)-1,3-dithiane Hemioxalate]	1.14 ± 0.021 µM	–
OC1(C2(CCC#CCN3CCCCC3)SCCCS2)c2ccccc2-c2ccccc21 [2-(5-Piperidinylpent-3-ynyl)-2-(9-hydroxy-9H-fluoren-9-yl)-1,3-dithiane]	1 ± 0.07 µM	–
CCCN(CC#CCCCC1(C2(O)c3ccccc3Oc3ccccc32)SCCCS1)CCC [2-(6-Dipropylaminohex-4-ynyl)-2-(9-hydroxy-9H-xanthen-9-yl)-1,3-dithiane]	0.47 ± 0.15 µM	–
CCN(CC)CC#CCCC1(c2ccccc2)SCCCS1 [2-(5-Diethylaminopent-3-ynyl)-2-phenyl-1,3-dithiane Oxalate]	0.9 ± 0.3 µM	–
CCN(CC)CC#CCCC1(C2(O)CCOc3ccccc32)SCCCS1 (stereo not shown) [2(5-Diethylaminopent-3-ynyl)-2-(4-hydroxy-4H-chromanyl)-1,3-dithiane]	1.94 ± 0.21 µM	–
COc1ccc(CCN(C)CC#CCCC(O)(c2ccccc2)C2SCCCS2)cc1OC (stereo not shown) [2[6-[2-(3,4-dimethoxyphenyl)ethyl]methylamino-1-hydroxy-1-phenylhex-4-ynyl]-1,3-dithiane]	1.23 ± 0.53 µM	–
CN(C)CC#CCCC1(C2(O)c3ccccc3Sc3ccccc32)SCCCS1 [2-(5-Dimethylaminopent-3-ynyl)-2-(9-hydroxy-9H-thioxanthen-9-yl)-1,3-dithiane]	0.68 ± 0.13 µM	–
CCN(CC)CC#CCCC1(C2(O)c3ccccc3Sc3ccccc32)SCCCS1 [2-(5-Diethylaminopent-3-ynyl)-2-(9-hydroxy-9H-thioxanthen-9-yl)-1,3-dithiane Oxalate]	0.125 ± 0.018 µM	–
CCN(CC)CC#CCCCC1SCCCS1 [2-(6-Diethylaminohex-4-ynyl)-1,3-dithiane Oxalate]	> 10 µM	–
CCN(CC)CC#CCCC1(C(O)(c2ccccc2)c2ccccc2)SCCCS1 [2-(5-Diethylaminopent-3-ynyl)-2-(α-hydroxy-α-phenylbenzyl)-1,3-dithiane Oxalate]	0.98 ± 0.16 µM	–
CN(CC#CCCC1(C2(O)c3ccccc3Oc3ccccc32)SCCCS1)CCCc1ccccc1 [2-[5-(3-Phenylpropyl)methylaminopent-3-ynyl]-2-(9-hydroxy-9H-xanthen-9-yl)-1,3-dithiane]	3.09 ± 0.99 µM	–
CCN(CC)CC#CCCC1(C(O)(c2ccccc2)C2CCCC2)SCCCS1 (stereo not drawn) [2-(5-Diethylaminopent-3-ynyl)-2-(α-cyclopentyl-α-hydroxybenzyl-1,3-dithiane Oxalate]	0.5 µM	–
